One assay deals with T1, Human MAT2A (Homo sapiens, UniProt P31153).
T1 construct: Human MAT2A: Cepter, amino acids 1-395 Clone ID 334, lot 00023-148; purchased Cepter clone ID 334, lot 00023-148
T1 sequence (P31153 whole entry, the tested form may be a part): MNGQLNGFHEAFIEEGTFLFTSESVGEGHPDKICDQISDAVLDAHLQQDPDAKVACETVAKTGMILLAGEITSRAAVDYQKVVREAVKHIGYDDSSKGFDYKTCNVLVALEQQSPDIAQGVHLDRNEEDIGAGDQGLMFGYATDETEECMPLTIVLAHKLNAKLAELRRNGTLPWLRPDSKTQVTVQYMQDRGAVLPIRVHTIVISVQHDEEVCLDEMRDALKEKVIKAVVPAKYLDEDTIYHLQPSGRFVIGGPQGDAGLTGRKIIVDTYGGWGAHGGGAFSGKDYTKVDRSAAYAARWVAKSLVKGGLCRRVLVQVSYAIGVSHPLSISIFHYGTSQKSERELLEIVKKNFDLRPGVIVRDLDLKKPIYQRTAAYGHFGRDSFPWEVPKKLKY
Kind of assay: Phosphate Sensor Fluorescence Assay (Biologic Example B). Format: biochemical. The note with it: MAT2A inhibition, procedure of Biological Example B; 5.8 nM MAT2A, 500 uM L-methionine, 500 uM ATP, 0.01% BGG. How it is done: (§1) The ability of the compound of present disclosure to inhibit MAT2A enzyme was determined using a Phosphate Sensor Fluorescence Assay described below.
(§2) MAT2A enzyme is incubated with a test compound in DMSO or DMSO and its substrates (L-methionine and ATP) in a microtiter plate. The enzymatic reaction is stopped by the addition of Working Phosphate Sensor Mixture. The plate is analyzed for fluorescence at 450 nm. The high control (DMSO with enzyme and its substrates) gives high fluorescence which represents no inhibition of enzymatic activity while the low control (DMSO with MAT2A substrates and no enzyme) gives low fluorescence which represents full inhibition of enzymatic activity.
MAT2A: 5.8 nM MAT2A (1-395), Cepter, clone ID 334, lot 00023-148 before the addition of Working Phosphate Sensor Mixture
(§3) L-methionine: 500 uM before the addition of Working Phosphate Sensor Mixture
(§4) ATP: 500 uM before the addition of Working Phosphate Sensor Mixture
(§5) For the assay, a mixture of 1 mM L-methionine/1 mM ATP (2X final pre-stopped concentration) in assay buffer; MAT2A (2X final pre-stopped concentration) in Assay Buffer and Working Phosphate Sensor Mixture (1.5 uM Phosphate Sensor/30 mM EDTA in Assay Buffer, which is 3X final concentrations) were prepared. Test compounds or DMSO were added to the appropriate well using a Beckman Coulter Echo 550 acoustic liquid handler. 10 μL/well of Assay Buffer was added to the wells corresponding to the negative control and 10 μL/well of MAT2A was added to all the wells except for those corresponding to the negative control. After incubating the plate at room temperature for 15 minutes, 10 μL/well of the 1 mM L-methionine/1 mM ATP mixture was added to all wells. The plate was centrifuged at 1000 rpm for 1 minute and then incubated at room temperature for 1 hour. 10 μL of the Working Phosphate Sensor Mixture was added to all wells and the plate was centrifuged at 1000 rpm for 1 minute. The plate was read for fluorescence at 450 nm after exciting at 430 nm on a Tecan Spark microplate reader.
(§6) Percent inhibition was calculated in Chemical and Biological Information System (CBIS), (ChemInnovation Software Inc.). Curves were fitted by CBIS as % inhibition vs. log [compound concentration] using a 4-parameter inhibition model.
(§7) Fit=(A+((B−A)/(1+((C/x)^D))))
`Cc1ccccc1-c1c(=O)nc(N)n2ccc(Br)cc12` [Compound 1.008, 1-Amino-6-bromo-4-(o-tolyl)-3H-pyrido[1,2-c]pyrimidin-3-one] returned a 50% inhibitory concentration (IC50) of 10 to 200 nM.

With `Cn1nccc1-c1c(=O)nc(N)n2ccc(C(F)(F)F)cc12` [Compound 1.006, 1-Amino-4-(1-methyl-TH-pyrazol-5-yl)-6-(trifluoromethyl)-3H-pyrido[1,2-c]pyrimidin-3-one], the IC50 is 10 to 200 nM.

Regarding `CNc1nc(=O)c(-c2ccccc2)c2cc(C(F)(F)F)ccn12` [Compound 1.011, 1-(Methylamino)-4-phenyl-6-(trifluoromethyl)-3H-pyrido[1,2-c]pyrimidin-3-one], the IC50 was in the range of 10 to 200 nM. The same measure, in the same setting: with `Nc1nc(=O)c(-c2cccnc2)c2cc(C(F)(F)F)ccn12` [Compound 1.005, 1-Amino-4-(pyridin-3-yl)-6-(trifluoromethyl)-3H-pyrido[1,2-c]pyrimidin-3-one] the figure was 10 to 200 nM.

The molecule `Nc1nc(=O)c(-c2ccccc2)c2cc(Br)ccn12` [Compound 1.007, 1-Amino-6-bromo-4-phenyl-3H-pyrido[1,2-c]pyrimidin-3-one] returned a concentration for half-maximal inhibition (IC50) of 10 to 200 nM. Same read-out and setting: the same measure for `CCCNc1nc(=O)c(-c2ccccc2)c2cc(C(F)(F)F)ccn12` [Compound 1.010, 4-Phenyl-1-(propylamino)-6-(trifluoromethyl)-3H-pyrido[1,2-c]pyrimidin-3-one]: 10 to 200 nM; for `CC(=O)Nc1nc(=O)c(-c2ccccc2)c2cc(C(F)(F)F)ccn12` [Compound 1.009, N-(3-oxo-4-phenyl-6-(trifluoromethyl)-3H-pyrido[1,2-c]pyrimidin-1-yl)acetamide]: 1000 to 10000 nM.

The next assay has as its target T1, Human MAT2A. The assay is described as follows: Phosphate Sensor Fluorescence Assay (Biologic Example A). Format: biochemical. The note with it: MAT2A inhibition, procedure of Biological Example A; 500 uM L-methionine, 500 uM ATP, 0.1% BGG. The method, then: as §1, §2
Human MAT2A: Cepter, amino acids 1-395
Assay Buffer: 50 mM Tris, pH 7.5/50 mM KCl/10 mM MgCl2/0.01% Brij-35/1 mM DTT/0.1% BGG/40 nM PNP/6 uM 7-MEG
MAT2A: 10 nM for Cepter clone ID 329, lot 00023-123 before the addition of Working Phosphate Sensor Mixture • 5 nM for Cepter clone ID 334, lot 00023-148 before the addition of Working Phosphate Sensor Mixture
as §3, §4
as §5, with “(2×” for “(2X”, “3×” for “3X”, “suing D300e digital dispenser. 5 μl/well” for “using a Beckman Coulter Echo 550 acoustic liquid handler. 10 μL/well”, “5 μl/well” for “10 μL/well”, “5 μl” for “10 μL”, “nm.” for “nm on a Tecan Spark microplate reader.”
as §6, §7
As for `Nc1nc(=O)c(-c2ccccc2)c2cc(C(F)(F)F)ccn12` [Compound 1.001, 1-amino-4-phenyl-6-(trifluoromethyl)-3H-pyrido[1,2-c]pyrimidin-3-one], the IC50 was in the range of 10 to 200 nM. Still for that read-out and setting: the same measure for `COc1cc(C(F)(F)F)cc2c(-c3ccccc3C)c(=O)nc(N)n12` [Compound 1.004, 1-amino-8-methoxy-4-(o-tolyl)-6-(trifluoromethyl)-3H-pyrido[1,2-c]pyrimidin-3-one]: 200 to 500 nM; for `Cc1ccccc1-c1c(=O)nc(N)n2ccc(C(F)(F)F)cc12` [Compound 1.002, 1-amino-4-(o-tolyl)-6-(trifluoromethyl)-3H-pyrido[1,2-c]pyrimidin-3-one]: 10 to 200 nM.

In turn, `Nc1nc(=O)c(-c2ccccc2Cl)c2cc(C(F)(F)F)ccn12` [Compound 1.003, 1-amino-4-(2-chlorophenyl)-6-(trifluoromethyl)-3H-pyrido[1,2-c]pyrimidin-3-one] came in with an IC50 of 10 to 200 nM.

These data come from patent US20230257377A1, “2-AMINOQUINAZOLINONE DERIVATIVES AS METHIONINE ADENOSYLTRANSFERASE 2A INHIBITORS” (IDEAYA BIOSCIENCES, INC., priority 2020, published 2023).
